Data published in patent US20240049711A1, “HERBICIDE COMPOSITION AND WEED CONTROLLING METHOD” (SUMITOMO CHEMICAL COMPANY, LIMITED, priority 2020, published 2024).
Counter-ions that a name gives are not always drawn.

Experiments:
Assay type in all cases: in vivo
[1] = system: Italian ryegrass (Lolium multiflorum); assay: Example 212: greenhouse pot test, spray above the pot 21 days after seeding; settings: rating 0 to 100; application rate compound X 15 g/ha, glyphosate potassium salt 630 g/ha; 200 L/ha; evaluated 6 days after spraying
Method: (§1) After filling a plastic pot with soil, Italian ryegrass (Lolium multiflorum) and giant foxtail (Setaria faberi) were seeded therein and grown in a greenhouse.

[2] = system: giant foxtail (Setaria faberi); assay: as above; settings: rating 0 to 100; application rate compound X 15 g/ha, glyphosate potassium salt 630 g/ha; 200 L/ha; evaluated 6 days after spraying
Method: as §1

[3] = system: Italian ryegrass (Lolium multiflorum); assay: Example 209: greenhouse pot test, spray above the pot 21 days after seeding; settings: rating 0 to 100; application rate compound X 15 g/ha, pendimethalin 560 g/ha; 200 L/ha; evaluated 6 or 8 days after spraying
Method: as §1

[4] = system: giant foxtail (Setaria faberi); assay: as above; settings: rating 0 to 100; application rate compound X 15 g/ha, pendimethalin 560 g/ha; 200 L/ha; evaluated 6 or 8 days after spraying
Method: as §1

[5] = system: common barnyardgrass (Echinochloa crus-galli); assay: Example 215: greenhouse pot test, spray above the pot 25 days after seeding; settings: rating 0 to 100; application rate compound X 10 g/ha, mesotrione 35 g/ha; 216 L/ha; 18 days after spraying
Method: A formulation was produced by dissolving a predetermined amount of mesotrione in DMF containing 2% Tween 20 (polyoxyethylene (20) sorbitan monolaurate) (called mesotrione formulation).
(§2) After filling a plastic pot with soil, common barnyardgrass (Echinochloa crus-galli) was seeded therein and grown in a greenhouse. […] Thereafter, the weeds were grown in the greenhouse for 18 days and the herbicidal effect was evaluated.

[6] = system: common barnyardgrass (Echinochloa crus-galli); assay: Example 214: greenhouse pot test, spray above the pot 25 days after seeding; settings: rating 0 to 100; application rate compound X 10 g/ha, chlorimuron-ethyl 16 g/ha; 216 L/ha; 18 days after spraying
Method: A formulation was produced by dissolving a predetermined amount of chlorimuron-ethyl in DMF containing 2% Tween 20 (polyoxyethylene (20) sorbitan monolaurate) (called chlorimuron-ethyl formulation).
After filling a plastic pot with soil, common barnyardgrass (Echinochloa crus-galli) was seeded therein and grown in a greenhouse. […] Thereafter, the weeds were grown in the greenhouse for 18 days and the herbicidal effect was estimated.

[7] = system: common barnyardgrass (Echinochloa crus-galli); assay: Example 216: greenhouse pot test, spray above the pot 25 days after seeding; settings: rating 0 to 100; application rate compound X 10 g/ha, metribuzin 105 g/ha; 216 L/ha; 18 days after spraying
Method: A formulation was produced by dissolving a predetermined amount of metribuzin in DMF containing 2% Tween 20 (polyoxyethylene (20) sorbitan monolaurate) (called metribuzin formulation).
as §2

[8] = system: Italian ryegrass (Lolium multiflorum); assay: Example 208: greenhouse pot test, spray above the pot 21 days after seeding; settings: rating 0 to 100; application rate compound X 15 g/ha, clethodim 53 g/ha; 200 L/ha; evaluated 6 days after spraying
Method: The compound X (55 mg) produced in Reference Production Example 1, 76.5 mg of Emulsogen TS290 (polyoxyethylene tristyryl phenyl ether, manufactured by Clariant) and 76.5 mg of Phenylsulfonat CAL (mixture of 70% calcium dodecylbenzenesulfonate and 30% iso-butanol, manufactured by Clariant) were dissolved in Solvesso 200ND (aromatic hydrocarbon, manufactured by Exxon Mobile Corporation) to make 1 ml in total, thus producing an emulsifiable concentrate (hereinafter referred to as formulation X).
After filling a plastic pot with soil, Italian ryegrass (Loliism multiflorum) was seeded therein and grown in a greenhouse.

[9] = system: Italian ryegrass; assay: Example 213: greenhouse pot test, spray above the pot 21 days after seeding; settings: rating 0 to 100; application rate compound X 15 g/ha, glufosinate ammonium salt 297 g/ha; 200 L/ha; evaluated 8 days after spraying
[10] = system: common barnyardgrass (Echinochloa crus-galli); assay: Example 218: greenhouse pot test, spray above the pot 25 days after seeding; settings: rating 0 to 100; application rate (table) compound X 10 g/ha, pyroxasulfone 40 g/ha; 216 L/ha; 18 days after spraying
Method: A formulation was produced by dissolving a predetermined of pyroxasulfone in DMF containing 2% Tween 20 (polyoxyethylene (20) sorbitan monolaurate) (called pyroxasulfone formulation).
as §2

[11] = system: common barnyardgrass (Echinochloa crus-galli); assay: Example 217: greenhouse pot test, spray above the pot 25 days after seeding; settings: rating 0 to 100; application rate (table) compound X 10 g/ha, flumioxazin 30 g/ha; 216 L/ha; 18 days after spraying
Method: A formulation was produced by dissolving a predetermined amount of flumioxazin in DMF containing 2% Tween 20 (polyoxyethylene (20) sorbitan monolaurate) (called flumioxazin formulation).
as §2

For `O=C(O)CNCP(=O)(O)O` [Glyphosate potassium salt, glyphosate potassium salt], the “Herbicidal effect on Italian ryegrass (observed value)” value (shortened to “Herbicidal effect on Italian ryegrass”) [1] was 50 and the “Herbicidal effect on giant foxtail (observed value)” value (shortened to “Herbicidal effect on giant foxtail”) [2] was 40.

With `CCOC(=O)COC(=O)C1(Oc2cc(-n3c(=O)cc(C(F)(F)F)n(C)c3=O)c(F)cc2Cl)CC1` [Compound X] the “Herbicidal effect on Italian ryegrass” value [1] was 20, the “Herbicidal effect on giant foxtail” value [2] was 70 and the “Herbicidal effect on Italian ryegrass” value [3] was 20. The “Herbicidal effect on giant foxtail” value [4] was 70, the “Herbicidal effect on common barnyardgrass (observed value)” value [5] was 45 and the “Herbicidal effect on common barnyardgrass (observed value)” value [6] was 45. For the same compound, the “Herbicidal effect on common barnyardgrass (observed value)” value [7] was 45, the “Herbicidal effect on Italian ryegrass” value [8] was 20 and the “Herbicidal effect on Italian ryegrass” value [9] was 20. The “Herbicidal effect on common barnyardgrass (observed value)” value [10] was 45 and the “Herbicidal effect on common barnyardgrass (observed value)” value [11] was 45.

`CCSC(C)CC1CC(=O)C(/C(CC)=N/OC/C=C/Cl)=C(O)C1` (stereo not shown) [Clethodim, clethodim] was tested, and the “Herbicidal effect on Italian ryegrass” value [8] was 10.

`CS(=O)(=O)c1ccc(C(=O)C2C(=O)CCCC2=O)c([N+](=O)[O-])c1` [Mesotrione, mesotrione] was tested, and the “Herbicidal effect on common barnyardgrass (observed value)” value [5] was 40.

In the case of `Cn1nc(C(F)(F)F)c(CS(=O)(=O)C2=NOC(C)(C)C2)c1OC(F)F` [Pyroxasulfone, pyroxasulfone], the “Herbicidal effect on common barnyardgrass (observed value)” value [10] is reported as 2.

In the case of `CCC(CC)Nc1c([N+](=O)[O-])cc(C)c(C)c1[N+](=O)[O-]` [Pendimethalin, pendimethalin], the “Herbicidal effect on Italian ryegrass” value [3] is reported as 0 and the “Herbicidal effect on giant foxtail” value [4] is reported as 0.

For `CCOC(=O)c1ccccc1S(=O)(=O)NC(=O)Nc1nc(Cl)cc(OC)n1` [Chlorimuron-ethyl, chlorimuron-ethyl], the “Herbicidal effect on common barnyardgrass (observed value)” value [6] was 45.

With `CSc1nnc(C(C)(C)C)c(=O)n1N` [Metribuzin, metribuzin] the “Herbicidal effect on common barnyardgrass (observed value)” value [7] was 8.

For `CP(=O)(O)CCC(N)C(=O)O` (stereo not shown) [Glufosinate ammonium salt, glufosinate ammonium salt], the “Herbicidal effect on Italian ryegrass” value [9] was 80.

In the case of `C#CCN1C(=O)COc2cc(F)c(N3C(=O)C4=C(CCCC4)C3=O)cc21` [Flumioxazin, flumioxazin], the “Herbicidal effect on common barnyardgrass (observed value)” value [11] is reported as 55.
